Experimental data taken from the CheMixHub viscosity set.

Test: xn = mol fraction of the nth substance listed

CCCC(C)=O + C1CCCC1
viscosity [mPa·s], 101.33 kPa
Settings | 293.15 K | 298.15 K | 303.15 K
x2 = 0.0411 | 0.49 | 0.463 | 0.44
x2 = 0.0966 | 0.481 | 0.455 | 0.431
x2 = 0.1985 | 0.471 | 0.445 | 0.422
x2 = 0.3214 | 0.458 | 0.433 | 0.41
x2 = 0.3876 | 0.452 | 0.428 | 0.406
x2 = 0.5026 | 0.443 | 0.419 | 0.398
x2 = 0.6097 | 0.436 | 0.414 | 0.392
x2 = 0.6934 | 0.433 | 0.41 | 0.39
x2 = 0.7996 | 0.429 | 0.407 | 0.387
x2 = 0.9054 | 0.429 | 0.406 | 0.386
x2 = 0.9515 | 0.433 | 0.41 | 0.389

CCCC(C)=O + C1CCCCC1
viscosity [mPa·s]
Settings | 293.15 K | 298.15 K | 303.15 K
101.32 kPa, x2 = 0.1524 | – | – | 0.474
101.32 kPa, x2 = 0.2942 | – | – | 0.496
101.32 kPa, x2 = 0.3752 | – | – | 0.507
101.32 kPa, x2 = 0.4326 | – | – | 0.517
101.32 kPa, x2 = 0.5075 | – | – | 0.532
101.32 kPa, x2 = 0.5951 | – | – | 0.555
101.32 kPa, x2 = 0.7377 | – | – | 0.607
101.32 kPa, x2 = 0.8891 | – | – | 0.695
101.33 kPa, x2 = 0.0483 | 0.5 | 0.473 | 0.447
101.33 kPa, x2 = 0.0981 | 0.506 | 0.477 | 0.452
101.33 kPa, x2 = 0.1932 | 0.516 | 0.486 | 0.458
101.33 kPa, x2 = 0.296 | 0.537 | 0.504 | 0.476
101.33 kPa, x2 = 0.3957 | 0.562 | 0.528 | 0.498
101.33 kPa, x2 = 0.4987 | 0.594 | 0.554 | 0.52
101.33 kPa, x2 = 0.5982 | 0.625 | 0.591 | 0.548
101.33 kPa, x2 = 0.7002 | 0.68 | 0.632 | 0.594
101.33 kPa, x2 = 0.8051 | 0.748 | 0.694 | 0.645
101.33 kPa, x2 = 0.9024 | 0.847 | 0.781 | 0.724
101.33 kPa, x2 = 0.9503 | 0.898 | 0.826 | 0.762

CCN(CC)CC + C1CCCCC1
303.15 K, 101 kPa
Settings | viscosity [mPa·s]
x1 = 0.01021 | 0.8057
x1 = 0.01915 | 0.7913
x1 = 0.0299 | 0.7725
x1 = 0.04221 | 0.7556
x1 = 0.04976 | 0.7402
x1 = 0.0618 | 0.7264
x1 = 0.07115 | 0.7134
x1 = 0.07987 | 0.7009
x1 = 0.08947 | 0.6879
x1 = 0.09947 | 0.6772

ClC(Cl)(Cl)Cl + C1CCCCC1
Settings | viscosity [mPa·s]
298 K, 101 kPa, x1 = 0.2753 | 0.8903
298 K, 101 kPa, x1 = 0.3845 | 0.8916
298 K, 101 kPa, x1 = 0.4418 | 0.8924
298 K, 101 kPa, x1 = 0.4727 | 0.8928
298 K, 101 kPa, x1 = 0.58 | 0.8943
298 K, 101 kPa, x1 = 0.6707 | 0.8955
298 K, 101 kPa, x1 = 0.6805 | 0.8956
298 K, 101 kPa, x1 = 0.7701 | 0.8969
298 K, 101 kPa, x1 = 0.864 | 0.8982
298 K, 101.3 kPa, x1 = 0.1774 | 0.847
298 K, 101.3 kPa, x1 = 0.3265 | 0.831
298 K, 101.3 kPa, x1 = 0.5278 | 0.836
298 K, 101.3 kPa, x1 = 0.6746 | 0.844
298 K, 101.3 kPa, x1 = 0.8521 | 0.86
298.15 K, 101 kPa, x1 = 0.272 | 0.858
298.15 K, 101 kPa, x1 = 0.5295 | 0.8568
298.15 K, 101 kPa, x1 = 0.7707 | 0.867
298.15 K, 101.33 kPa, x1 = 0.272 | 0.858
298.15 K, 101.33 kPa, x1 = 0.5 | 0.8551
298.15 K, 101.33 kPa, x1 = 0.5295 | 0.8568
298.15 K, 101.33 kPa, x1 = 0.625 | 0.8594
298.15 K, 101.33 kPa, x1 = 0.7707 | 0.867
318 K, 101.3 kPa, x1 = 0.1636 | 0.6445
318 K, 101.3 kPa, x1 = 0.3244 | 0.6522
318 K, 101.3 kPa, x1 = 0.5293 | 0.667
318 K, 101.3 kPa, x1 = 0.6744 | 0.6869
318 K, 101.3 kPa, x1 = 0.8658 | 0.7148
